What all share (experiment): Kinase profiling in a biochemical assay panel (mobility shift assays and ELISA), %-inhibition at 1 μM; selectivity entropy
A general note: In an ELISA, binding on a coated surface is turned into a signal by an enzyme label.

For assay [1], the target named is T1, panel of more than 300 wild-type and mutant kinases (313 kinase panel) (Homo sapiens, UniProt Q13188).
T1 sequence (Q13188 1-491): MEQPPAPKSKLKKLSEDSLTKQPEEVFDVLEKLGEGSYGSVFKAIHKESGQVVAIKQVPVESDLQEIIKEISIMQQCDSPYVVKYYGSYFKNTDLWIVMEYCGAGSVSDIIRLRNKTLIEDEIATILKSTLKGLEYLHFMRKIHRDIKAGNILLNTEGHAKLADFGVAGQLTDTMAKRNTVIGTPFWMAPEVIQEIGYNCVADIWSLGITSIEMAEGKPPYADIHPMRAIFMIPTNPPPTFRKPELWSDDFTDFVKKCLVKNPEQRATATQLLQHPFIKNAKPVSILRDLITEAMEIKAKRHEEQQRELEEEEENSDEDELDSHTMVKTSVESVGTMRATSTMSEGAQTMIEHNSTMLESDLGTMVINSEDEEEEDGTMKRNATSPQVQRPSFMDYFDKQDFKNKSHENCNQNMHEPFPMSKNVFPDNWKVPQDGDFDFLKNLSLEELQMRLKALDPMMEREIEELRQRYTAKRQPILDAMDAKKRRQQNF

Assay [2] deals with panel of more than 300 wild-type and mutant kinases (313 kinase panel) (Homo sapiens, UniProt Q8IU85).
For assay [3], the target named is panel of more than 300 wild-type and mutant kinases (313 kinase panel) (Homo sapiens, UniProt P17948).
Assay [4] has as its target panel of more than 300 wild-type and mutant kinases (313 kinase panel) (Homo sapiens, UniProt Q15119).
For assay [5], the target named is panel of more than 300 wild-type and mutant kinases (313 kinase panel) (Homo sapiens, UniProt Q9UKE5).
For assay [6], the target named is panel of more than 300 wild-type and mutant kinases (313 kinase panel) (Homo sapiens, UniProt P22607).
Assay [7] deals with panel of more than 300 wild-type and mutant kinases (313 kinase panel) (Homo sapiens, UniProt Q00535).
Assay [8] deals with panel of more than 300 wild-type and mutant kinases (313 kinase panel) (Homo sapiens, UniProt P68400).
Assay [9] addresses T2, panel of more than 300 wild-type and mutant kinases (313 kinase panel) (Homo sapiens, UniProt P29323).
T2 sequence (P29323 19-1055): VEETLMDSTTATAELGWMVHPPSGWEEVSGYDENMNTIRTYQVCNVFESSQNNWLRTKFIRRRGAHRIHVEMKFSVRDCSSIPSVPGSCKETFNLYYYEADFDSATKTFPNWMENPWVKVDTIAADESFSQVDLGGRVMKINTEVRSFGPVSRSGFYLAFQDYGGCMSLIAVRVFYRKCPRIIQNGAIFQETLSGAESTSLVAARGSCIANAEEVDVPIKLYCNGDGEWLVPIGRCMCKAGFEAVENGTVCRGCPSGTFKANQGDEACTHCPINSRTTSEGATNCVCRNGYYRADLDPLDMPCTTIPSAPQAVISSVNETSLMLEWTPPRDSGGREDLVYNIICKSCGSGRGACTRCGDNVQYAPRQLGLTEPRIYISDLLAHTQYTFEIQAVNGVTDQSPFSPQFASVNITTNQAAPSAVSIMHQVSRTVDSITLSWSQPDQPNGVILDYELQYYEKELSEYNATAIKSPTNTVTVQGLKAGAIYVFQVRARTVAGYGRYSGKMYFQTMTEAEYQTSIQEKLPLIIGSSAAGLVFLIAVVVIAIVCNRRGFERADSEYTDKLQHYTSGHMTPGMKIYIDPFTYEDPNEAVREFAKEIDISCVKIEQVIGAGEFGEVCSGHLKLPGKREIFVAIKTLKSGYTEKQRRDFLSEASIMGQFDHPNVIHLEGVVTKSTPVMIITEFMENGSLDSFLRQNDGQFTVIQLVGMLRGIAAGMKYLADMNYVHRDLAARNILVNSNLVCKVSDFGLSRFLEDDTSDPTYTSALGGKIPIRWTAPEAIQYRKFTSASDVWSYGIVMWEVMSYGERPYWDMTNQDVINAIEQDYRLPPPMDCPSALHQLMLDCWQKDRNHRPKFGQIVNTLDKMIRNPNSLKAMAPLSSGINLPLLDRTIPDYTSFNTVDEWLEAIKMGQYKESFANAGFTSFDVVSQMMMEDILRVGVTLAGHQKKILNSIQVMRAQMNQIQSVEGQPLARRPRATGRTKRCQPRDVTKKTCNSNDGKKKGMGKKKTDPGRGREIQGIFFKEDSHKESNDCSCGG

In assay [10] the target is panel of more than 300 wild-type and mutant kinases (313 kinase panel) (Homo sapiens, UniProt Q04912).
Assay [11] concerns the target panel of more than 300 wild-type and mutant kinases (313 kinase panel) (Homo sapiens, UniProt Q9H2X6).

panel of more than 300 wild-type and mutant kinases (313 kinase panel) (Homo sapiens, UniProt Q00535), sequence (Q00535 whole entry, change not shown): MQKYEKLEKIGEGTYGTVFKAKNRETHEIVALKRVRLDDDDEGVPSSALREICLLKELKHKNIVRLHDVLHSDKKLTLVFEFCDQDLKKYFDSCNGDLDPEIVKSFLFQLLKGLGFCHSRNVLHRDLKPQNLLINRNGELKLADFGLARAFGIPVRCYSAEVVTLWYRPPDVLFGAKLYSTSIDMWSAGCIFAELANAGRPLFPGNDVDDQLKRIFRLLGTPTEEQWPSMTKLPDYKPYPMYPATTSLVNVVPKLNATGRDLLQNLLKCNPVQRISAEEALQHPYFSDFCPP
panel of more than 300 wild-type and mutant kinases (313 kinase panel) (Homo sapiens, UniProt Q9UKE5), sequence (Q9UKE5 whole entry, change not shown): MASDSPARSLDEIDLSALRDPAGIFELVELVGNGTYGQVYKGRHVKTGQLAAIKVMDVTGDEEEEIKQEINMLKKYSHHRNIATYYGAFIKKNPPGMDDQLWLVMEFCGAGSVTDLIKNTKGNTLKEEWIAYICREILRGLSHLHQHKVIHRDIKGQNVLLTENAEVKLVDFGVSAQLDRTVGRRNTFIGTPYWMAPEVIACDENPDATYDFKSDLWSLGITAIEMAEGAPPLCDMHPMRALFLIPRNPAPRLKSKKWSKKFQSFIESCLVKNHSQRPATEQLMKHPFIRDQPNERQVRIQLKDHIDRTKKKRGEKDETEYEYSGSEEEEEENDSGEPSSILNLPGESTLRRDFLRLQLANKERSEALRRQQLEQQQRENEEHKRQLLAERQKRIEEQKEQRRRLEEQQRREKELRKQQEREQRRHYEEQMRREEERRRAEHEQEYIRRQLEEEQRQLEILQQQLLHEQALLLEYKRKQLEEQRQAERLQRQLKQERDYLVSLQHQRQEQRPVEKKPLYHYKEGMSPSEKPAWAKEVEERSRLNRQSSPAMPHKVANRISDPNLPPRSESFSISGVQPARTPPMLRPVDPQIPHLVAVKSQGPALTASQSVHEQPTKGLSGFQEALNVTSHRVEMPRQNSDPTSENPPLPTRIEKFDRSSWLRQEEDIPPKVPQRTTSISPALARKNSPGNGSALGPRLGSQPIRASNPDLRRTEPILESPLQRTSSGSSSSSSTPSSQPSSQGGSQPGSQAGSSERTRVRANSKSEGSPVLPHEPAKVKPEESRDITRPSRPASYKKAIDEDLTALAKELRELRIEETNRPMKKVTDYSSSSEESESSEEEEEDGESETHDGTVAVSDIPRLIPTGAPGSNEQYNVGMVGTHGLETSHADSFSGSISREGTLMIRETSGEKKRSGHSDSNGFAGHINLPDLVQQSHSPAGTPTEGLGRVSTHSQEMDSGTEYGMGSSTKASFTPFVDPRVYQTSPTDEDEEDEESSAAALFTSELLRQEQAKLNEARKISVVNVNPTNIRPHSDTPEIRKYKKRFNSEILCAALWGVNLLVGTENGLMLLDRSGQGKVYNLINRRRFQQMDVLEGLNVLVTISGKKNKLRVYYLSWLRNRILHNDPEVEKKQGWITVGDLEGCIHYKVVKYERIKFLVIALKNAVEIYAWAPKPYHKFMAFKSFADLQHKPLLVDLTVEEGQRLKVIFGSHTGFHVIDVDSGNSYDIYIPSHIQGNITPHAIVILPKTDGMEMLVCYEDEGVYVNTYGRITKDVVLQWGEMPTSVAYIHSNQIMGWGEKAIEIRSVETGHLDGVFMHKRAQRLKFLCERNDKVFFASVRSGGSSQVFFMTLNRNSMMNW
panel of more than 300 wild-type and mutant kinases (313 kinase panel) (Homo sapiens, UniProt P22607), sequence (P22607 23-806, change not shown): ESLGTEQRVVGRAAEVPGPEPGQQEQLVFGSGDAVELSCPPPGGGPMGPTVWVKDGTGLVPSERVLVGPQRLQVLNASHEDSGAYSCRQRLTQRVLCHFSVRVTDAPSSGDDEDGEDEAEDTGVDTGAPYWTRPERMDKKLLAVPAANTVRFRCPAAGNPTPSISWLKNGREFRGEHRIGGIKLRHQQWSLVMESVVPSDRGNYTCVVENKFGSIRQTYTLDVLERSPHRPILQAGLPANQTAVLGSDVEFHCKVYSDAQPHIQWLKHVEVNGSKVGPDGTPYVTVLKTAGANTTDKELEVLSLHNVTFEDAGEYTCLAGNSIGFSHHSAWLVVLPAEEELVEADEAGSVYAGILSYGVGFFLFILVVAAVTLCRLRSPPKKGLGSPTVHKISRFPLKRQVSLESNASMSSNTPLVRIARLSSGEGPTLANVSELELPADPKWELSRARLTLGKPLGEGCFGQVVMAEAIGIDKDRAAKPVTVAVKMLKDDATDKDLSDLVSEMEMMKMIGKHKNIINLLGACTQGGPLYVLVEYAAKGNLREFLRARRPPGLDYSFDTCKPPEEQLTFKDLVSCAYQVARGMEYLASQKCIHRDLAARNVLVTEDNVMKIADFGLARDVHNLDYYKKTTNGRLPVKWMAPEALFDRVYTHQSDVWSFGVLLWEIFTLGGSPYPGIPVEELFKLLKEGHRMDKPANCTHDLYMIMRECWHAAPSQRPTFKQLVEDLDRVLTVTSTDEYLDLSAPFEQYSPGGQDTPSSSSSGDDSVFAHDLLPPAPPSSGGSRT

Take `COc1cc2nccc(Oc3ccc(NC(=O)C4(C(=O)Nc5ccc(F)cc5)CC4)cc3)c2cc1OC` [cabozantinib]: the “%-inhibition of MST2” value in [1] (kinase MST2, 1 μM) is given as -0.31%. In assay [2] (kinase CaMK1δ, 1 μM compound), the “%-inhibition, CaMK1δ” value was -1.37%. Moreover, the “%-inhibition of FLT1” value in [3] (kinase FLT1, compound at 1 μM) is listed as 99%. The “%-inhibition of PDHK2” value in assay [4] (kinase PDHK2, 1 μM) is on record as -1.54%. The “%-inhibition of TNIK” value in [5] (kinase TNIK, 1 μM) is reported as 16%. Also, the “%-inhibition of FGFR3” value in assay [6] (kinase FGFR3, compound at 1 μM) worked out at 8%. The “%-inhibition, CDK5/p25” value in assay [7] (kinase CDK5/p25, 1 μM compound) was -14%. Besides, the “%-inhibition, CK2α1/β” value in [8] (kinase CK2α1/β, 1 μM compound) is recorded as -2.76%. For the same compound, the “%-inhibition of EPHB2” value in assay [9] (kinase EPHB2, compound at 1 μM) is 96%. Besides, in [10] (kinase RON, 1 μM), the “%-inhibition of RON” value is 99%. In addition, the “%-inhibition of HIPK2” value in assay [11] (kinase HIPK2, compound at 1 μM) amounted to 60%.

In the case of `C#Cc1cccc(Nc2ncnc3cc(OCCOC)c(OCCOC)cc23)c1` [erlotinib], the “%-inhibition of MST2” value in assay [1] (1 µM) is 7%. Also, the “%-inhibition, CaMK1δ” value in assay [2] (1 µM) is listed as -3.68%. Also, in assay [3] (1 µM), the “%-inhibition of FLT1” value was 70%. In addition, the “%-inhibition of PDHK2” value in [4] (1 µM) is recorded as -4%. For the same compound, the “%-inhibition of TNIK” value in assay [5] (1 µM) is reported as 34%. In addition, the “%-inhibition of FGFR3” value in assay [6] (1 µM) came to 63%. In addition, in assay [7] (1 µM), the “%-inhibition, CDK5/p25” value was found to be 8%. Besides, the “%-inhibition, CK2α1/β” value in [8] (1 µM) turned out to be 0%. Also, in assay [9] (1 µM), the “%-inhibition of EPHB2” value is 23%. Also, in assay [10] (1 µM), the “%-inhibition of RON” value is 8%. The “%-inhibition of HIPK2” value in assay [11] (1 µM) came to 10%.

As to `CO[C@H]1C[C@@H]2CC[C@@H](C)[C@@](O)(O2)C(=O)C(=O)N2CCCC[C@H]2C(=O)O[C@H]([C@H](C)C[C@@H]2CC[C@@H](OCCO)[C@H](OC)C2)CC(=O)[C@H](C)/C=C(\C)[C@@H](O)[C@@H](OC)C(=O)[C@H](C)C[C@H](C)/C=C/C=C/C=C/1C` [everolimus], the “%-inhibition of MST2” value in [1] (kinase MST2, 1 μM) was -2.3%. Further, in [2] (kinase CaMK1δ, 1 μM compound), the “%-inhibition, CaMK1δ” value is -8%. The “%-inhibition of FLT1” value in assay [3] (kinase FLT1, compound at 1 μM) is -2.63%. The “%-inhibition of PDHK2” value in [4] (kinase PDHK2, 1 μM) turned out to be 4%. For the same compound, the “%-inhibition of TNIK” value in assay [5] (kinase TNIK, 1 μM) is listed as -3%. For the same compound, the “%-inhibition of FGFR3” value in assay [6] (kinase FGFR3, compound at 1 μM) was -9%. The “%-inhibition, CDK5/p25” value in assay [7] (kinase CDK5/p25, 1 μM compound) is -26%. The “%-inhibition, CK2α1/β” value in assay [8] (kinase CK2α1/β, 1 μM compound) is -4.26%. Moreover, the “%-inhibition of EPHB2” value in assay [9] (kinase EPHB2, compound at 1 μM) is reported as -7%. The “%-inhibition of RON” value in assay [10] (kinase RON, 1 μM) is -6.45%. For the same compound, the “%-inhibition of HIPK2” value in assay [11] (kinase HIPK2, compound at 1 μM) is -6%.

For `Cc1cn(-c2cc(NC(=O)c3ccc(C)c(Nc4nccc(-c5cccnc5)n4)c3)cc(C(F)(F)F)c2)cn1` [nilotinib], the “%-inhibition of MST2” value in [1] (kinase MST2, 1 μM) is listed as -8%. The “%-inhibition, CaMK1δ” value in assay [2] (kinase CaMK1δ, 1 μM compound) came out at 3.56%. The “%-inhibition of FLT1” value in assay [3] (kinase FLT1, compound at 1 μM) was determined as 32%. For the same compound, the “%-inhibition of PDHK2” value in [4] (kinase PDHK2, 1 μM) turned out to be 0.549%. Also, the “%-inhibition of TNIK” value in assay [5] (kinase TNIK, 1 μM) is 11%. Further, the “%-inhibition of FGFR3” value in [6] (kinase FGFR3, compound at 1 μM) is -11%. The “%-inhibition, CDK5/p25” value in [7] (kinase CDK5/p25, 1 μM compound) is reported as 0.83%. Moreover, in [8] (kinase CK2α1/β, 1 μM compound), the “%-inhibition, CK2α1/β” value turned out to be 3.23%. Also, in assay [9] (kinase EPHB2, compound at 1 μM), the “%-inhibition of EPHB2” value was 85%. In addition, the “%-inhibition of RON” value in assay [10] (1 µM) was -13%. Further, the “%-inhibition of HIPK2” value in [11] (kinase HIPK2, compound at 1 μM) is on record as 16%.

Regarding `CNC(=O)c1cc(Oc2ccc(NC(=O)Nc3ccc(Cl)c(C(F)(F)F)c3)c(F)c2)ccn1` [regorafenib], the “%-inhibition of MST2” value in assay [1] (kinase MST2, 1 μM) was -6.39%. Moreover, the “%-inhibition, CaMK1δ” value in [2] (kinase CaMK1δ, 1 μM compound) is listed as -5.29%. In assay [3] (kinase FLT1, compound at 1 μM), the “%-inhibition of FLT1” value is given as 102%. Also, the “%-inhibition of PDHK2” value in [4] (kinase PDHK2, 1 μM) came out at 7%. Further, the “%-inhibition of TNIK” value in assay [5] (kinase TNIK, 1 μM) is 42%. For the same compound, the “%-inhibition of FGFR3” value in assay [6] (kinase FGFR3, compound at 1 μM) worked out at 97%. Also, the “%-inhibition, CDK5/p25” value in [7] (kinase CDK5/p25, 1 μM compound) is -19%. Further, the “%-inhibition, CK2α1/β” value in [8] (kinase CK2α1/β, 1 μM compound) is -9%. Besides, the “%-inhibition of EPHB2” value in assay [9] (kinase EPHB2, compound at 1 μM) stood at 84%. Moreover, in assay [10] (kinase RON, 1 μM), the “%-inhibition of RON” value is recorded as 3.5%. In [11] (kinase HIPK2, compound at 1 μM), the “%-inhibition of HIPK2” value came to 78%.

Values taken from publication PMC3961306, “Comparison of the Cancer Gene Targeting and Biochemical Selectivities of All Targeted Kinase Inhibitors Approved for Clinical Use” (PLoS ONE, 2014).
